Data from US11970502B2, “Macrocyclic antiviral agents” (Enanta Pharmaceuticals, Inc., priority 2021, dated 2024).
Read-outs that look alike come from different tables or passages of the source.

Columns and labels:
[1] = target: SARS-CoV-2 3CL-protease (Severe acute respiratory syndrome coronavirus 2, UniProt P0DTD1); experiment: biochemical
[2] = system: 229E human corona virus (hCoV); experiment: 229E Cellular Assay (MRC5), 229E live virus assay, ATPlite readout; assay type: cell-based, hCoV-229E
[3] = recombinant 3CL-protease 10 nM, substrate 40 μM, 30 min preincubation at RT, read-out: FRET IC50
[4] = Human coronavirus 229E, MRC5, 144 h; read-out: EC50 (229E)

Row | SMILES | IC50 [1, 3] | EC50 [2, 4] | EC50 ([2]; Human coronavirus 229E, MRC5, 144 h; MRC-5 cells, hCoV-229E MOI 0.05, 6 days at 34° C., ATPlite; read-out: EC50 (229E)) | IC50 [1] | EC50 ([2]; Human coronavirus 229E, MRC5, 144 h, read-out: EC50 (229E))
1 | CC(C)C[C@H]1C(=O)N[C@H](C#N)C[C@@H]2C[C@@H](CCCC[C@H](NC(=O)c3ccccc3Cl)C(=O)N1C)NC2=O [Example 3] | < 0.1 µM | 0.1 to 1 µM |  |  | 
2 | CC(C)C[C@H]1C(=O)N[C@H](C#N)C[C@@H]2C[C@@H](CCCC[C@H](NC(=O)c3ccccn3)C(=O)N1C)NC2=O [Example 4] | < 0.1 µM | > 1 µM |  |  | 
3 | CC(C)C[C@H]1C(=O)N[C@H](C#N)C[C@@H]2C[C@@H](CCCC[C@H](NC(=O)OC(C)(C)C)C(=O)N1C)NC2=O [Example 2] | < 0.1 µM |  | > 1 µM |  | 
4 | CC(C)C[C@H]1C(=O)N[C@H](C#N)C[C@@H]2C[C@@H](CCCCc3nc(-c4ccccc4Cl)oc3N1C)NC2=O [Example 6] | 0.1 to 1 µM | 0.1 to 1 µM |  |  | 
5 | CC(C)C[C@H]1C(=O)N[C@H](C#N)C[C@@H]2C[C@@H](CCCC[C@H](NC(=O)c3cc4c(F)cc(F)c(F)c4[nH]3)C(=O)N1C)NC2=O [Example 5] | 0.1 to 1 µM | > 1 µM |  |  | 
6 | CC(C)C[C@H]1C(=O)N[C@H](C#N)C[C@@H]2C[C@@H](C/C=C/C[C@H](NC(=O)OC(C)(C)C)C(=O)N1C)NC2=O [Example 1] |  |  |  | 0.1 to 1 µM | > 1 µM
